Assay results: patent US20130210907A1, “METHOD FOR PREVENTING OR TREATING ENTEROCHROMAFFIN CELL HYPERPLASIA-RELATED DISEASES BY QUERCETIN ADMINISTRATION” (HONG KONG BAPTIST UNIVERSITY, priority 2012, published 2013)

System: TPH
Assay: Colonic TPH expression by Western blot
Type: in vivo, rat
Method: The colon tissues are homogenized and sonicated on ice for protein extraction. After determination of protein content, the samples protein are denatured at 100° C. for 5 min. Proteins are separated by 10% SDS-PAGE and transferred to PVDF membranes (Bio-Rad, CA). After blocking with 5% nonfat milk, the membranes are incubated overnight at 4° C. with rabbit anti-TPH antibody (1:1000, Santa Cruz, Calif.), then incubated with the appropriate secondary antibodies for 1 h at room temperature. The immunoreaction is detected using ECL Western blotting kit (ECL, Amersham, UK). Bands are visualized on Biomax X-ray film, and optical density of each band is semi-quantified by computer software (Image J.NIH). All detected protein bands are normalized to β-actin levels.

Compound: O=c1c(O)c(-c2ccc(O)c(O)c2)oc2cc(O)cc(O)c12 [Quercetin, 2-(3,4-dihydroxyphenyl)-3,5,7-trihydroxy-4H-chromen-4-one]
- TPH/actin ratio (PI-IBS rats, colon, 10 mg/kg i.g.): 0.62 ± 0.11
- Reduction of colonic TPH expression in PI-IBS rats (median dose, 10 mg/kg, p<0.05): ~22.8%
